The source of these data is patent publication US9365541B2, “Compounds for use in the treatment of parasitic diseases” (IRBM—SCIENCE PARK S.P.A., priority 2012, dated 2016).

Test [1] concerns histone 4 acetylated lysine 8 (H4K8Ac). The test is described as follows: Histone hyperacetylation assay (Western blot H4K8Ac) in HeLa cells. The test is classed as cell-based, human. The conditions noted are these: data not shown. As to the method:
FIG. 2. Hyperacetylation of HeLa's histones. HeLa cells were incubated in vitro for 14-16 hours with increasing concentrations (49 nM to 25 uM) of compound (S)-N-(7-(methylamino)-1-(5-(naphthalen-2-yl)-1H-imidazol-2-yl)-7-oxoheptyl)quinuclidine-4-carboxamide (Table 2, entry 126) or were treated with vehicle (0.01% DMSO). Beta-actin was used as loading control (see materials and methods). H4K8Ac: antibody directed against acetylated lysine 8 of histone 4.
After result normalization using positive and negative controls, compound potency is determined by fitting the following equation: % inh=Ymin+(Ymax−Ymin)/(1+(X/EC50)^slope)) Where: • Ymin=minimum percentage effect • Ymax=maximum percentage effect • EC50=the concentration of the compound at which 50% effect is reached • Slope=the slope of the curve calculated at the EC50 Histone Hyperacetylation and Immunodetection of Altered Histone Modifications Assay
The effect of test compounds on histone acetylation status was determined by incubating Plasmodium falciparum 3D7 infected erythrocytes or HeLa cells with different concentrations of drugs or vehicle (0.01% DMSO) alone. Infected erythrocytes were collected at 14-16 hours post treatment and lysed in saponin (0.15%). […] Supernatants were analyzed by 12% SDS-PAGE and transferred onto PVDF (Immun-Blot PVDF Membrane for Protein Blotting, BIORAD, Cat: No 162-0177) membranes. […]

Test [2] shares this test system. In words: Histone hyperacetylation assay (Western blot H4K8Ac) in P. falciparum 3D7 infected erythrocytes. The format is cell-based. The conditions noted are these: Plasmodium falciparum, Erythrocyte, 20 nM to 10 uM, 14-16 hours, read-out: estimated EC50 in the hyperacetylation assay. On the procedure: FIG. 1. Hyperacetylation of P. falciparum histones. Plasmodium falciparum 3D7 infected erythrocytes (5-7% parasitemia) were cultured for 14-16 hours in vitro with increasing concentrations (6 nM to 3 uM) of (A): compound (S)-N-(7-(methylamino)-1-(5-(naphthalen-2-yl)-1H-imidazol-2-yl)-7-oxoheptyl)quinuclidine-4-carboxamide (Table 2, entry 126) or with vehicle (0.01% DMSO); increasing concentrations (20 nM to 10 uM) of (B): compound (S)-N-(1-(5-(4-(1H-pyrazol-5-yl)phenyl)-1H-imidazol-2-yl)-7-(methylamino)-7-oxoheptyl)thiazole-5-carboxamide (Table 2, entry 221; Example 4, D9). Beta-actin was used as loading control (see materials and methods). H4K8Ac: antibody directed against acetylated lysine 8 of histone 4. […]
The effect of test compounds on histone acetylation status was determined by incubating Plasmodium falciparum 3D7 infected erythrocytes or HeLa cells with different concentrations of drugs or vehicle (0.01% DMSO) alone. […] Supernatants were analyzed by 12% SDS-PAGE and transferred onto PVDF (Immun-Blot PVDF Membrane for Protein Blotting, BIORAD, Cat: No 162-0177) membranes. […]

Consider `CNC(=O)CCCCC[C@H](NC(=O)c1cncs1)c1ncc(-c2ccc(-c3ccn[nH]3)cc2)[nH]1` [D9, (S)-N-(1-(5-(4-(1H-pyrazol-5-yl)phenyl)-1H-imidazol-2-yl)-7-(methylamino)-7-oxoheptyl)thiazole-5-carboxamide], for which, in test [1], the “concentration up to which no change in histone acetylation was observed in HeLa cells” value is greater than 10 µM. Further, in test [2], the EC50 is 350 nM.
